“And” between values parts separate entries of the source, which are not always exact repeats. Equal entries are not always repeated.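 Step 1: Grow cells in 96-well plates. Step 2: Expose to compound for 48 hours at 5 concentrations. Step 3: Interpolate endpoints linearly; if unreached, use highest concentration. At the GI50, growth is halved. TGI marks complete inhibition of growth.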

Among the test systems are RXF 393 renal; KM12 colon; PC-3 prostate; NCI/ADR-RES ovarian; MOLT-4 leukemia; K-562 leukemia; UACC-257 melanoma; SK-MEL-5 melanoma; T-47D breast; HL-60(TB) leukemia.
What all share (test): DTP human tumour cell line panel, 48 h

A word on the GI50: it is the concentration that inhibits growth by half. A word on the TGI: it is the concentration at which net growth stops. Read a high TGI as less potent growth arrest. With `COc1ccc2c(c1)/C(=C\c1c(Cl)n(C)c3ccccc13)C(=O)N2`, the GI50 with RXF 393 renal is 1.53 µM; in the assay on KM12 colon, 9.06 µM; with PC-3 prostate it was 1.33 µM; in the assay with NCI/ADR-RES ovarian, 0.629 µM; with MOLT-4 leukemia it was 1.7 µM; in the assay with K-562 leukemia, 3.71 µM. Also, the GI50 in the assay with UACC-257 melanoma was 1.87 µM; with SK-MEL-5 melanoma, 0.76 µM; in the assay with T-47D breast, 3.02 µM; in the assay with HL-60(TB) leukemia it was 0.182 µM. The TGI in the assay with RXF 393 renal was 8.23 µM; in the assay with KM12 colon, 26.4 µM; with PC-3 prostate, over 36.8 µM; in the assay with NCI/ADR-RES ovarian, 2.03 µM; with MOLT-4 leukemia, over 22 µM; with K-562 leukemia, over 100 µM. The total growth inhibition concentration (TGI) in the assay with UACC-257 melanoma is 13.3 µM; in the assay with SK-MEL-5 melanoma, 7 µM; in the assay with T-47D breast, 31.4 µM; in the assay on HL-60(TB) leukemia it was 2.65 µM.
For `O=S(=O)(CCNCc1ccc(-c2ccc3ncnc(Nc4ccc(OCc5cccc(F)c5)c(Cl)c4)c3c2)o1)c1ccccc1`, the GI50 with RXF 393 renal, in the assay with KM12 colon, with PC-3 prostate, with NCI/ADR-RES ovarian, in the assay on MOLT-4 leukemia and in the assay on K-562 leukemia was over 25 µM each time. The GI50 with UACC-257 melanoma was over 25 µM; with SK-MEL-5 melanoma it was over 20.5 µM; in the assay with T-47D breast it was 2.21 µM; in the assay with HL-60(TB) leukemia it was over 25 µM. For the same molecule, the total growth inhibition concentration (TGI) with RXF 393 renal, in the assay on KM12 colon, with PC-3 prostate, in the assay with NCI/ADR-RES ovarian, with MOLT-4 leukemia and in the assay on K-562 leukemia was over 25 µM each time. In addition, the TGI in the assay on UACC-257 melanoma, in the assay on SK-MEL-5 melanoma, in the assay on T-47D breast and in the assay on HL-60(TB) leukemia was over 25 µM in each case.
`COc1cc(/C=C2\C(=O)N(c3ccccc3)c3ccccc32)cc(OC)c1OC`: the GI50 in the assay on RXF 393 renal was 0.107 µM; in the assay on KM12 colon, 3.84 µM; with PC-3 prostate, 3.13 µM; in the assay with NCI/ADR-RES ovarian, 6.37 µM; in the assay on MOLT-4 leukemia, 2.33 µM; in the assay on K-562 leukemia it was 3.04 µM. Also, the GI50 in the assay with UACC-257 melanoma is 6.66 µM; in the assay on SK-MEL-5 melanoma, 7.29 µM; with T-47D breast it was 5.02 µM; with HL-60(TB) leukemia it was 2.68 µM. Moreover, the concentration for total growth inhibition (TGI) in the assay with RXF 393 renal was 2.87 µM; in the assay on KM12 colon, 20.1 µM; with PC-3 prostate, 16.1 µM; in the assay on NCI/ADR-RES ovarian, 27.1 µM; with MOLT-4 leukemia it was 10.8 µM; in the assay with K-562 leukemia, over 100 µM. In addition, the total growth inhibition concentration (TGI) with UACC-257 melanoma was 19.9 µM; in the assay with SK-MEL-5 melanoma it was 26.7 µM; in the assay on T-47D breast, over 100 µM; with HL-60(TB) leukemia, 15 µM.
Consider `O=C(Cc1ccccc1)NC(c1ccc(Cl)cc1)c1c(O)ccc2ccccc12` (centres undefined), for which the GI50 was 2.17 µM in the assay on RXF 393 renal; 3.62 µM with KM12 colon; 3.19 µM with PC-3 prostate; 3.41 µM in the assay with NCI/ADR-RES ovarian; 3.51 µM with MOLT-4 leukemia; 3.1 µM with K-562 leukemia. Moreover, the GI50 was 2.77 µM in the assay with UACC-257 melanoma, 1.73 µM in the assay on SK-MEL-5 melanoma, 3.65 µM in the assay with T-47D breast and 2.43 µM with HL-60(TB) leukemia. Besides, the total growth inhibition concentration (TGI) in the assay with RXF 393 renal was 8.03 µM; with KM12 colon it was 11.7 µM; in the assay on PC-3 prostate it was 10.6 µM; in the assay on NCI/ADR-RES ovarian it was 11.5 µM; in the assay on MOLT-4 leukemia, 20.3 µM; in the assay with K-562 leukemia it was 26.3 µM. The concentration for total growth inhibition (TGI) with UACC-257 melanoma worked out at 10.4 µM; in the assay on SK-MEL-5 melanoma it was 3.2 µM; with T-47D breast, 13.8 µM; in the assay on HL-60(TB) leukemia, 6.39 µM.
For the molecule `OCC1OC(n2cnc3c2NC=NC[C@H]3O)CC1O` (some centres undefined), the GI50 was over 588 µM with RXF 393 renal; over 588 µM with MOLT-4 leukemia; over 588 µM in the assay with K-562 leukemia; over 588 µM in the assay with SK-MEL-5 melanoma; 219 µM with HL-60(TB) leukemia. Further, the TGI was 500 µM and > 588 µM with RXF 393 renal; 500 µM in the assay on KM12 colon; over 500 µM in the assay on PC-3 prostate; 500 µM with NCI/ADR-RES ovarian; 469 µM and > 588 µM with MOLT-4 leukemia; 474 µM and > 588 µM in the assay on K-562 leukemia. Further, the TGI was 468 µM in the assay on UACC-257 melanoma; 499 µM and > 588 µM in the assay on SK-MEL-5 melanoma; 281 µM in the assay on T-47D breast; 465 µM and > 588 µM with HL-60(TB) leukemia.
Turning to `N=c1n(Cc2ccccc2)c(N)cc(=O)n1Cc1ccccc1`, the GI50 in the assay on RXF 393 renal was 1.87 µM; in the assay on KM12 colon, 4.75 µM; with PC-3 prostate, 2.74 µM; in the assay on NCI/ADR-RES ovarian, 2.33 µM; in the assay with MOLT-4 leukemia, 1.24 µM; with K-562 leukemia it was 3.82 µM. The GI50 is 3.1 µM in the assay with UACC-257 melanoma, 1.9 µM with SK-MEL-5 melanoma, 3.01 µM in the assay with T-47D breast and 2.21 µM in the assay with HL-60(TB) leukemia. In addition, the total growth inhibition concentration (TGI) in the assay with RXF 393 renal is 5.71 µM; in the assay with KM12 colon it was 29.3 µM; in the assay on PC-3 prostate, 19.9 µM; with NCI/ADR-RES ovarian it was 5.71 µM; in the assay on MOLT-4 leukemia it was 5.38 µM; in the assay on K-562 leukemia it was over 100 µM. Further, the concentration for total growth inhibition (TGI) in the assay on UACC-257 melanoma was 11 µM; with SK-MEL-5 melanoma it was 3.95 µM; in the assay on T-47D breast, 12.4 µM; in the assay on HL-60(TB) leukemia, 4.93 µM.
Regarding `S=C(c1ccc2c(c1)OCO2)N1CCN(c2cccc(Cl)c2)CC1`, the GI50 in the assay with RXF 393 renal is 10.9 µM; with KM12 colon, 0.447 µM; in the assay on PC-3 prostate, 4.08 µM; in the assay on NCI/ADR-RES ovarian, 0.635 µM; with MOLT-4 leukemia, 2.28 µM; in the assay on K-562 leukemia, 0.318 µM. For the same molecule, the figures for the GI50 in the assay with SK-MEL-5 melanoma, in the assay on T-47D breast and with HL-60(TB) leukemia were 0.454 µM, 7.31 µM and 0.195 µM, respectively. For the same molecule, the TGI with RXF 393 renal is 40.8 µM; in the assay with KM12 colon it was 29.7 µM; in the assay on PC-3 prostate, over 100 µM; in the assay on NCI/ADR-RES ovarian it was over 100 µM; in the assay on MOLT-4 leukemia, over 55.8 µM; in the assay with K-562 leukemia it was over 41.8 µM. For the same molecule, the TGI is over 21.2 µM in the assay with UACC-257 melanoma, over 100 µM with SK-MEL-5 melanoma, over 100 µM in the assay with T-47D breast and 0.642 µM in the assay with HL-60(TB) leukemia.
